Measured values from patent publication US5561127A, “Muscarinic receptor ligands” (Allelix Biopharmaceuticals, Inc., priority 1994, dated 1996).
pKi: −log10 of the molar value.

Assays:
5-HT2 receptor = 5-HT2 receptor (Rattus norvegicus, UniProt P14842); assay: 5-HT2 receptor binding assay (displacement of 3H-ketanserin)
[1] = biological target: T1, human D4 receptor (D4.2 sub-type) (Homo sapiens, UniProt P21917, DEL265-296); assay: Dopamine D4 receptor binding assay (displacement of 3H-spiperone); settings: 3H-spiperone 0.25 nM, transfected with human D4.2, room temperature, 90 min; read-out: Receptor affinity D4 (Ki)
T1 construct: expressed in transfected cells; host or cells: HEK 298 (so in the source)
T1 sequence (P21917 with tags, fused parts or gaps DEL265-296): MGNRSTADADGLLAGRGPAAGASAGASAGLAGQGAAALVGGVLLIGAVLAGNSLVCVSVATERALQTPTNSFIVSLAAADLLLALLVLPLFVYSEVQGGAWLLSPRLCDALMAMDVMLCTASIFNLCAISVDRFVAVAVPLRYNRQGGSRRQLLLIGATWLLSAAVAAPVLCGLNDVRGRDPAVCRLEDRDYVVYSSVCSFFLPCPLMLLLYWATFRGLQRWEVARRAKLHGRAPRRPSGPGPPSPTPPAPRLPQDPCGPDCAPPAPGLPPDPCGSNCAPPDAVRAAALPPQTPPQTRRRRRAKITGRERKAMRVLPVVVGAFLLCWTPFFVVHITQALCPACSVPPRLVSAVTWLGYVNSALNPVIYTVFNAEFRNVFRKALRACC

[2] = biological target: T2, human D2 receptor (short isoform) (Homo sapiens, UniProt P14416); assay: Dopamine D2 receptor binding assay (displacement of 3H-spiperone); settings: 3H-spiperone 0.25 nM, GH4C1 cells transfected with human D2 short isoform, room temperature, 90 min; read-out: Receptor affinity D2 (Ki)
T2 construct: expressed in transfected cells
T2 sequence (P14416 1-414 isoform P14416-2): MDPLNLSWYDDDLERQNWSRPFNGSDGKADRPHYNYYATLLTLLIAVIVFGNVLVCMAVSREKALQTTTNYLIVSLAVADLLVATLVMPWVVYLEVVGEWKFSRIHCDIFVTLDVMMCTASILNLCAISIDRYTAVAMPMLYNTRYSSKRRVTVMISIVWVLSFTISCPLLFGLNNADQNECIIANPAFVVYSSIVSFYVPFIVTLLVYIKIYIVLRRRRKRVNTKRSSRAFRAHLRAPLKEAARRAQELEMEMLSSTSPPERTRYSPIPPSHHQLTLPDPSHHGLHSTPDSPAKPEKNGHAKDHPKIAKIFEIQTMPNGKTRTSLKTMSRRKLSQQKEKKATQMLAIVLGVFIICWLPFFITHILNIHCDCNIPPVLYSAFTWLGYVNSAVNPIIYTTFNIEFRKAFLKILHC

[3] = biological target: muscarinic M1/M2 receptor; assay: Muscarinic M1/M2 receptor binding assay (displacement of 3H-QNB); settings: 3H-QNB 0.126 nM, rat frontal cortex membranes, 32° C., 60 min, pH 7.4; read-out: Receptor affinity M1/M2 (Ki)

5-HT2 receptor, sequence (P14842 whole entry): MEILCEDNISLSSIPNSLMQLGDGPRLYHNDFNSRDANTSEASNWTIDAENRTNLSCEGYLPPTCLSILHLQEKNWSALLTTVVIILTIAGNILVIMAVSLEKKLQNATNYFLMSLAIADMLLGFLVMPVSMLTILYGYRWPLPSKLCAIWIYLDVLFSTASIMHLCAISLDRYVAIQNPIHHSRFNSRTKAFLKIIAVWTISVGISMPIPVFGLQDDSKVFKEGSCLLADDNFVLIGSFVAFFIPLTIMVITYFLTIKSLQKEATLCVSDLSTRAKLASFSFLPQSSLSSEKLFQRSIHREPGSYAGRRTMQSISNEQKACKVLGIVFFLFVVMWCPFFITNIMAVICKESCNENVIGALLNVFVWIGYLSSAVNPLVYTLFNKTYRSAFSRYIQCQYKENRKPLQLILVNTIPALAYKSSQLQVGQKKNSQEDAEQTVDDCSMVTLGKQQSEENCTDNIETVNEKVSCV

pKi (5-HT2 receptor)	pKi [1]	pKi [2]	pKi [3]	Compound
5.80	5.32	5.33	7.39	CN1CC2CC1CN2C1=Nc2cc(Cl)c(Cl)cc2Nc2ccccc21 (stereo not drawn) [7,8-dichloro-11-(2-methyl-2,5-diazabicyclo(2.2.1)hept-5-yl)-dibenzo[b,e][1,4]diazepine]
5.99	5.32	5.35	7.55	CN1CC2CC1CN2C1=Nc2cc(Cl)ccc2Oc2ccccc21 (stereo not drawn) [8-chloro-11-(2-methyl-2,5-diazabicyclo(2.2.1)hept-5-yl)-dibenz[b,f][1,4]oxazepine]
5.44	6.20	5.88	6.05	c1ccc(CN2CC3CC2CN3C2=Nc3ccccc3Oc3ccccc32)cc1 (stereo not drawn) [11-(2-benzyl-2,5-diazabicyclo(2.2.1)hept-5-yl)-dibenz[b,f][1,4]oxazepine]
